This note sets out measurements from article PMC8262356, “SLC26A6-selective inhibitor identified in a small-molecule screen blocks fluid absorption in small intestine” (JCI Insight, 2021).

The target of one data set is T1, SLC26A9 (Homo sapiens, UniProt Q7LBE3).
T1 construct: expressed in transfected cells; host or cells: FRT cells coexpressing YFP
T1 sequence (Q7LBE3 1-791): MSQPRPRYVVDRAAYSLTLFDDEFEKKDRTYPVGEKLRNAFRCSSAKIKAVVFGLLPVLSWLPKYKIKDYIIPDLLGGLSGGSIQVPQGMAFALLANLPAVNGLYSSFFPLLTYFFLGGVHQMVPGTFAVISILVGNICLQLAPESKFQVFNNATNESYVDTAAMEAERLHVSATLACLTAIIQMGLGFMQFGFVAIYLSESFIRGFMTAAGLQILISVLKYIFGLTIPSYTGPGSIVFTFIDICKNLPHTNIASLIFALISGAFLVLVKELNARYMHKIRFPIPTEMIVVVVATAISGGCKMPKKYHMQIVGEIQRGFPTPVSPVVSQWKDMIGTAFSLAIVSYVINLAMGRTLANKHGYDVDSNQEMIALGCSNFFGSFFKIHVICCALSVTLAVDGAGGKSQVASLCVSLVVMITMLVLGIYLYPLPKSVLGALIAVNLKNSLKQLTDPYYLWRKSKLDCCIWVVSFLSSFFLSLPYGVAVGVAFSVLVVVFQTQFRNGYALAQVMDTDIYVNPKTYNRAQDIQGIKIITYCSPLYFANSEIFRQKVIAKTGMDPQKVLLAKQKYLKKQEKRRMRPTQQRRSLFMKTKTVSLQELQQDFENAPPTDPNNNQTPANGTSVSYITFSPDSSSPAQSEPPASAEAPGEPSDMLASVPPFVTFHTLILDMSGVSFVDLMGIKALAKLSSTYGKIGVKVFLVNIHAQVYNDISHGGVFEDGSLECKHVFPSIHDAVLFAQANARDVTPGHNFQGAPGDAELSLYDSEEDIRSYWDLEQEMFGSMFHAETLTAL
Kind of data set: Selectivity: Cl-/I- exchange in FRT cells coexpressing YFP and SLC26A9. In kind it is cell-based. The following applies: 25 μM. The procedure: PAT1inh-B01 selectivity was studied by testing its effects on related SLC26A family anion transporters and the Cl^– channel TMEM16A. These measurements used a similar Cl^–/I^– exchange protocol, but FRT cells separately expressed each of the SLC26A family members or TMEM16A. […] PAT1inh-B01 selectivity was also tested by short-circuit current (Isc) in well-differentiated human bronchial epithelial (HBE) cells, which have a complex ion transport mechanism that includes cystic fibrosis transmembrane conductance regulator (CFTR), epithelial Na^+ channel (ENaC), and Ca^+2-activated chloride channels (CaCCs) ([13]). […] Potential PAT1inh-B01 cytotoxicity was studied in FRT cells.
Figure 3 PAT1inh-B01 selectivity and cytotoxicity. […] Cl^–/I^– exchange or I^– influx measured in FRT cells coexpressing YFP and SLC26A isoforms or TMEM16A, with data shown for 25 μM PAT1inh-B01, DMSO vehicle control, and 500 μM niflumic acid (positive control for SLC26A transporters) or 10 μM TMinh-23 (positive control for TMEM16A). […] (C) (left) Short-circuit current (Isc) in well-differentiated HBE cells measured in the absence (top) and presence (bottom) of 25 μM PAT1inh-B01. […]
YFP-based cellular assays of slc26a3, slc26a4, SLC26A9, and TMEM16A function were performed as described previously ([7]). […] The activities of ENaC, CFTR, and CaCC were determined using well-differentiated HBE cells as described previously ([13]). […]

A further data set in a line: Solubility. In kind it is physicochemical.

SMILES strings stand for the structures.

`Cc1c(Br)c(C(F)(F)F)nn1CC(=O)N1CCc2nc3cc(-c4ccccc4)[nH]n3c(=O)c2C1` [PAT1inh-B01]: the “inhibition of SLC26A9” value against SLC26A9 was “did not significantly inhibit”. Besides, the solubility entry in the data set “Solubility” is reported as “favorable”.
